Assays:
[1] = Plasma pharmacokinetics in pig (release of R-100 from R-107), LCMS; type: in vivo; details: for concentration at 0.08 h: 0.08 hrs post dose; for concentration at 0.17 h: 0.17 hrs post dose; for concentration at 0.25 h: 0.25 hrs post dose; for concentration at 0.5 h: 0.5 hrs post dose; for concentration at 1 h: 1 hrs post dose; for concentration at -0.08 h: −0.08 hrs post dose
Description: In the following two experiments, the pharmacokinetic of releasing R-100 from R-107, via R-105 that is the reduced form of R-100, was studied in vivo according to the protocol described herein.
100 μl aliquots plasma obtained from R-107-treated sheep or pig were thawed and 200 μl ice-cold ethanol was added to each 100 μl sample to precipitate protein. Samples were then vortexed, placed on ice for 10 minutes, and then spun down at room temperature for 15 minutes. A first 100 μl supernatant from each spun sample was withdrawn and placed in a labeled HPLC micro vial to which 300 μl MPA (LC mobile phase A) was added, and the vial contents were then mixed and submitted for LCMS analysis (kept at 4° C.). The concentration of R-107 was measured in this sample as was the concentration of R105. A second 100 μl supernatant from each spun sample was added to a labelled HPLC micro vial to which 300 μl MPA and 2 μl of Reducing solution (ascorbic acid, 1.0 mg/ml in water) were added. These vials were vortexed; incubated at 50° C. for 1 hour with gentle shaking; and were then cooled to 4° C. and submitted for LCMS analysis. This sample was analyzed for R105, i.e., reduced form of R-100, and the amount measured thus represents the sum of R-100 and R-105 originally present in the plasma. The concentration of R-100 can be calculated from that of the R-105 in the second sample minus that of R-105 in the first sample. However, the concentrations of R-105 were seen to be low (approximately 10% or less of those of R-100) and so the results reported below as R-100 are not corrected for R-105.
Sets of standards (R-100, R-105 and R-107) were prepared by spiking individually in pig plasma. 100 μl aliquots of these spiked plasma samples, after thawing, were included in the above extraction protocol.
Analysis method were carried out with an Agilent HPLC stack, with column eluate directed, via a diverter valve, into the source of an AB Sciex ‘Qstar Elite’ Hybrid TOF, high-resolution mass spectrometer. LC column: Phenomenex Kinetex C18 2.6u 100A, 2.1×50 mm. LC mobile phase A: H2O with 0.02% trifluoroacetic acid (TFA), 0.1% formic acid (HOF); Phase B: acetonitrile (ACN) with 0.02% TFA, 0.1% HOF. Mobile phase flow rate=500 μl/min. Injection size: 8 μl, via Agilent 1100 u-WPS autosampler.

[2] = Density of R-107; type: physicochemical; parameters: unit not given here; details: oil
[3] = test system: pulmonary hypertension of the newborn (PPHN); test: Lamb model of pulmonary hypertension of the newborn; type: in vivo, newborn lambs; details: protocol only; 0.3, 1.0, 3.0 mg/kg/h IV
Description: In this study, a prospective, placebo-controlled, dose-escalation, randomized study is carried out in anesthetized, mechanically-ventilated, and muscle-relaxed newborn lambs wherein pulmonary hypertension of the newborn (PPHN) has been induced by in utero ligation of the ductus arteriosus. This clinically-relevant gold-standard model is characterized by severe PAH that is poorly responsive to inhaled nitric oxide (iNO), thus reflecting the 30-50% of clinical PPHN non-responders to clinical iNO therapy. R-107 (0, 0.3, 1.0, and 3.0 mg/kg/h IV; n=6 per group) is compared to iNO (40 ppm; n=6) over a 6 hour period of observation. Hemodynamic parameters are monitored for response to treatment and post-treatment rebound pulmonary arterial hypertension. The activity of R-107 is related to its plasma concentration, in order to construct a pharmacodynamic profile.

[4] = test system: contrast-induced nephropathy (CIN); test: Rat model of contrast-induced nephropathy; type: in vivo, Sprague-Dawley rats; details: protocol only; 10, 20, 40 mg/kg/day BID IV
Description: In order to test the efficacy of R-107 in contrast-induced nephropathy (CIN), a single-blinded study of CIN is carried out in Sprague-Dawley rats (n=10 per group) subjected to dehydration, prostaglandin synthetase inhibition, and an IV challenge of contrast media (CM). A sham injury group is compared to treatment of CM-challenged healthy rats with R-107 (10, 20, 40 mg/kg/day in 5% dextrose, BID IV), N-acetylcysteine (NAC, 100 mg/kg/day in 5% dextrose, BID), or vehicle control (hydroxypropyl cyclodextrin, HPCD) initiated 10 min before CM administration and continued for 48 hours. Rats are evaluated at 48 hours for renal function (blood urea nitrogen to creatinine ratio, BUN:creatinine) and parameters reflecting renal injury, including protein release into the blood (NGAL; kidney injury molecule-1, KIM-1), pro-inflammatory transcription factor expression (cytoplasmic IkBa degradation, nuclear p65 translocation), histologic damage (H&E), mitochondrial swelling (electron microscopy), and nuclear damage and DNA repair (PARP activation and nitrosative stress as noted by poly(ADP-ribose) and 3-nitrotyrosine (3-NT) tissue immunoreactivity). […]

[5] = IV R-107 diluted in 4 parts of PEG400, 18 mg/kg over 6 minutes, 24 hrs post dose
[6] = capsule per os of neat R-107 88 mg/kg, 24 hrs post dose
[7] = plasma, IV R-107 diluted in 4 parts of PEG400, 18 mg/kg over 6 minutes
[8] = plasma, IV neat R-107 88 mg/kg over 6 minutes
[9] = plasma, oral, capsule per os of neat R-107 88 mg/kg

## CC(=O)ON1C(C)(C)CC(CO[N+](=O)[O-])C1(C)C (stereo not drawn) [R-107, 2,2,5,5-tetramethyl-3-(nitrooxymethyl)pyrrolidin-1-yl acetate]
[1]; IV R-107 diluted in 4 parts of PEG400, 18 mg/kg over 6 minutes, 2 hrs post dose
  R-107 in plasma: not detected
[1]; IV R-107 diluted in 4 parts of PEG400, 18 mg/kg over 6 minutes, 4 hrs post dose
  R-107 in plasma: not detected
[1]; IV R-107 diluted in 4 parts of PEG400, 18 mg/kg over 6 minutes, 8 hrs post dose
  R-107 in plasma: not detected
[1]; [5]
  R-100 in plasma: not detected
  R-107 in plasma: not detected
[1]; IV neat R-107 88 mg/kg over 6 minutes, 6 hrs post dose
  R-107 in plasma: not detected
[1]; IV neat R-107 88 mg/kg over 6 minutes, 24 hrs post dose
  R-107 in plasma: not detected
[1]; capsule per os of neat R-107 88 mg/kg, 8 hrs post dose
  R-107 in plasma: not detected
[1]; [6]
  R-100 in plasma: not detected
  R-107 in plasma: not detected
[1]; [7]
  concentration at 0.08 h: 2380 ng/mL
  concentration at 0.17 h: 640 ng/mL
  concentration at 0.25 h: 430 ng/mL
  concentration at 0.5 h: 250 ng/mL
  concentration at 1 h: 220 ng/mL
  concentration at -0.08 h: 0 ng/mL
[1]; [8]
  concentration at 0.08 h: 5240 ng/mL
  concentration at 0.17 h: 5870 ng/mL
  concentration at 0.25 h: 3430 ng/mL
  concentration at 0.5 h: 1320 ng/mL
  concentration at 1 h: 360 ng/mL
  concentration at -0.08 h: 0 ng/mL
[1]; plasma, IV neat R-107 88 mg/kg over 6 minutes, 2 hrs post dose
  concentration at 2 h: 260 ng/mL
[1]; [9]
  concentration at 0.08 h: 1.32 ng/mL
  concentration at 0.17 h: 0.715 ng/mL
  concentration at 0.5 h: 0.345 ng/mL
  concentration at 1 h: 0.11 ng/mL
[1]; plasma, oral, capsule per os of neat R-107 88 mg/kg, 2 hrs post dose
  concentration at 2 h: 0.222 ng/mL
[1]; plasma, oral, capsule per os of neat R-107 88 mg/kg, 3 hrs post dose
  concentration at 3 h: 0.11 ng/mL
[1]; plasma, oral, capsule per os of neat R-107 88 mg/kg, 4 hrs post dose
  concentration at 4 h: 0.122 ng/mL
[2]
  Density: 1.12
[3]
  Efficacy in lamb model of pulmonary hypertension of the newborn: Effective
[4]
  Efficacy in rat model of contrast-induced nephropathy: Effective

Source: patent publication US9604932B2 (priority 2013, dated 2017)
